Results published in patent US12378224B2 (Dong-A Socio Holdings Co., Ltd., priority 2016, dated 2025).

Biological target: human MER (528-end) (Homo sapiens (Human), UniProt Q12866)
Test: HTRF Kinase Activity Biochemical Assay (KinEASE-TK)
Settings: 10 uM ATP
In short: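 Recombinant human MER (528-end) phosphorylated biotin-TK peptide substrate, 1 h at room temperature. Reaction stopped with detection buffer containing 0.375 nM Eu3+-cryptate anti-TK antibody and 0.062 uM streptavidin-XL665, 1 h further. Activity taken as HTRF ratio 665/620 nm ×10,000, 340 nm excitation.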

human MER (528-end), sequence (Q12866 528-999 limits assumed): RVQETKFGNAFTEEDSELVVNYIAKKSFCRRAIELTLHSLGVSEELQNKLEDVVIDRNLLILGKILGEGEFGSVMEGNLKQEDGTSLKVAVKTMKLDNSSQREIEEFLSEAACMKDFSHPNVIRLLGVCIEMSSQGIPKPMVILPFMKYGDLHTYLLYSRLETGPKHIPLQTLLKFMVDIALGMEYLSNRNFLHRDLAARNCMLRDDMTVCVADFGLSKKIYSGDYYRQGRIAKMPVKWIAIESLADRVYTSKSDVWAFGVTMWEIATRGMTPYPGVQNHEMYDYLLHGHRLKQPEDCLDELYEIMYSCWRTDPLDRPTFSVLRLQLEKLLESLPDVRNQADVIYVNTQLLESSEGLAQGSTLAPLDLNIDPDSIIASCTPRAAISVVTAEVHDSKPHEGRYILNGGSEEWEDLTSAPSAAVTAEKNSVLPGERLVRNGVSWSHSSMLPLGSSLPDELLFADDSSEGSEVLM

Row | Structure (SMILES) | IC50
1 | Cn1cc(-c2cnc(N)c(C(=O)N[C@@H]3CCN(C(=O)c4ccc(-c5ccc(C(F)(F)F)cc5)cc4)C3)c2)cn1 [Example 371, (R)-2-amino-5-(1-methyl-1H-pyrazol-4-yl)-N-(1-(4′-(trifluoromethyl)-[1,1′-biphenyl]-4-carbonyl)pyrrolidin-3-yl)nicotinamide] | > 1000 nM
2 | Cn1cc(-c2cnc(N)c(C(=O)N[C@@H]3CCN(C(=O)c4ccc(-c5ccc(OCc6ccccc6)cc5)cc4)C3)c2)cn1 [Example 372, (R)-2-amino-N-(1-(4′-(benzyloxy)-[1,1′-biphenyl]-4-carbonyl)pyrrolidin-3-yl)-5-(1-methyl-1H-pyrazol-4-yl)nicotinamide] | > 1000 nM
3 | Cn1cc(-c2cnc(N)c(C(=O)N[C@@H]3CCN(C(=O)c4ccc(-c5ccc(Cl)cc5)cc4)C3)c2)cn1 [Example 377, (R)-2-amino-N-(1-(4′-chloro-[1,1′-biphenyl]-4-carbonyl)pyrrolidin-3-yl)-5-(1-methyl-1H-pyrazol-4-yl)nicotinamide] | 100 to 1000 nM
4 | Cn1cc(-c2cnc(N)c(C(=O)N[C@@H]3CCN(C(=O)c4ccc(-c5ccc(C(C)(C)C)cc5)cc4)C3)c2)cn1 [Example 378, (R)-2-amino-N-(1-(4′-(tert-butyl)-[1,1′-biphenyl]-4-carbonyl)pyrrolidin-3-yl)-5-(1-methyl-1H-pyrazol-4-yl)nicotinamide] | > 1000 nM
5 | Cn1cc(-c2cnc(N)c(C(=O)N[C@@H]3CCN(C(=O)c4ccc(-c5ccc(O)cc5)cc4)C3)c2)cn1 [Example 380, (R)-2-amino-N-(1-(4′-hydroxy-[1,1′-biphenyl]-4-carbonyl)pyrrolidin-3-yl)-5-(1-methyl-1H-pyrazol-4-yl)nicotinamide] | 100 to 1000 nM
6 | CN1CCN(c2ccc(-c3ccc(C(=O)N4CC[C@@H](NC(=O)c5cc(-c6cnn(C)c6)cnc5N)C4)cc3)cc2)CC1 [Example 383, (R)-2-amino-5-(1-methyl-1H-pyrazol-4-yl)-N-(1-(4′-(4-methylpiperazin-1-yl)-[1,1′-biphenyl]-4-carbonyl)pyrrolidin-3-yl)nicotinamide] | > 1000 nM

More lines, now with the values ahead:

Row | IC50 | Structure (SMILES)
7 | 10 to 100 nM | Cn1cc(-c2cnc(N)c(C(=O)N[C@@H]3CCN(C(=O)c4ccc(-c5cc(Cl)ccc5Cl)cc4)C3)c2)cn1 [Example 367, (R)-2-amino-N-(1-(2′,5′-dichloro-[1,1′-biphenyl]-4-carbonyl)pyrrolidin-3-yl)-5-(1-methyl-1H-pyrazol-4-yl)nicotinamide]
8 | 100 to 1000 nM | Cn1cc(-c2cnc(N)c(C(=O)N[C@@H]3CCN(C(=O)c4ccc(-c5c(Cl)cccc5Cl)cc4)C3)c2)cn1 [Example 368, (R)-2-amino-N-(1-(2′,6′-dichloro-[1,1′-biphenyl]-4-carbonyl)pyrrolidin-3-yl)-5-(1-methyl-1H-pyrazol-4-yl)nicotinamide]
9 | 10 to 100 nM | Cn1cc(-c2cnc(N)c(C(=O)N[C@@H]3CCN(C(=O)c4ccc(-c5ccccc5Br)cc4)C3)c2)cn1 [Example 373, (R)-2-amino-N-(1-(2′-bromo-[1,1′-biphenyl]-4-carbonyl)pyrrolidin-3-yl)-5-(1-methyl-1H-pyrazol-4-yl)nicotinamide]
10 | 100 to 1000 nM | Cn1cc(-c2cnc(N)c(C(=O)N[C@@H]3CCN(C(=O)c4ccc(-c5ccccc5O)cc4)C3)c2)cn1 [Example 375, (R)-2-amino-N-(1-(2′-hydroxy-[1,1′-biphenyl]-4-carbonyl)pyrrolidin-3-yl)-5-(1-methyl-1H-pyrazol-4-yl)nicotinamide]
11 | 100 to 1000 nM | Cc1c(N)cccc1-c1ccc(C(=O)N2CC[C@@H](NC(=O)c3cc(-c4cnn(C)c4)cnc3N)C2)cc1 [Example 376, (R)-2-amino-N-(1-(3′-amino-2′-methyl-[1,1′-biphenyl]-4-carbonyl)pyrrolidin-3-yl)-5-(1-methyl-1H-pyrazol-4-yl)nicotinamide]
12 | 10 to 100 nM | Cn1cc(-c2cnc(N)c(C(=O)N[C@@H]3CCN(C(=O)c4ccc(-c5ccc(C(C)(C)N6CCNCC6)cc5)cc4)C3)c2)cn1 [Example 384, (R)-2-amino-5-(1-methyl-1H-pyrazol-4-yl)-N-(1-(4′-(2-(piperazin-1-yl)propan-2-yl)-[1,1′-biphenyl]-4-carbonyl)pyrrolidin-3-yl)nicotinamide]
